# Laboratory results from US11702424B2, “Bicyclic-fused heteroaryl or aryl compounds” (Pfizer Inc., priority 2014, dated 2023).
# How the values were obtained:
# [1] = tested on: collagen-induced arthritis; assay: In Vivo Rat Collagen-Induced Arthritis Model; conditions: Lewis rat CIA; for days on which hind paw swelling in CIA rats was significantly reduced (t-test, p<0.05 vs. vehicle): paw volume by plethysmograph
# Experimental: In Vivo Rat Collagen-Induced Arthritis Model.
# Efficacy of IRAK4 compounds of the present invention was also evaluated in a rat in vivo model of rheumatoid arthritis (M. Hegen, J. C. Keith, Jr, M. Collins, C. L. Nickerson-Nutter, Ann. Rheum. Dis. 2008, 67, 1505-1515). An exemplary protocol for this in vivo model follows.
# Female Lewis rats, approximately 7 weeks old, were immunized with an emulsion of type II collagen (CII) and incomplete Freund's adjuvant (IFA) on day 0 and received a boost of CII/IFA on day 7. Hind paw volume increase was taken by plethysmograph. Animals were randomly enrolled into treatment groups based on the development of disease. Beginning on day 11 post immunization, rats were enrolled into random treatment groups based on an increase in a single hind paw volume compared to day 7 post immunization baseline measurements.
# Ten rats were enrolled per treatment group with the exception of the naive control group, which contained two rats. Day 0 was designated as the first treatment day, and paw measurements are taken daily by plethysmograph. The rats were weighed on a daily basis.
# IRAK4 inhibitors are efficacious in the Lewis rat model of collagen-induced arthritis.
# serum TNF = assay: In Vivo Mouse LPS/D-Gal Challenge Model; conditions: oral, serum TNF vs. vehicle
# Experimental: In Vivo Mouse LPS/D-Gal Challenge Model.
# Efficacy of IRAK4 compounds of the present invention was also evaluated in an in vivo mouse model of endotoxin induced (Lipopolysaccharide (LPS)) inflammation. See: S. Copeland, H. W. Warren, S. F. Lowry, S. E. Calvano, and D. Remick, Clin. Diagn. Lab. Immnol. 2005, 12(1), 60-67. An exemplary protocol for this in vivo model follows.
# Female C57/BL6 mice, 8 to 10 weeks old, are orally administered either vehicle or formulated IRAK-4 compound 1 hour prior to the challenge. Vehicle or IRAK4 compound is administered by oral gavage at a volume of 10 mL/kg. One hour post oral delivery of vehicle or compound, the animals are challenged with an intraperitoneal injection (IP) of a solution containing 1 μg/mL LPS and 80 mg/mL D-gal. Each mouse is injected with […] of the solution, for a final challenge dose of 100 ng LPS and 8 mg D-gal. Ninety minutes post LPS/D-gal challenge, animals are euthanized and blood collected. Blood is allowed to clot at room temperature and serum is separated by centrifugation and stored at −80° C. for analysis. Serum TNF and IL-6 are measured by Meso Scale Discovery (MSD) multiplex platform.
# The groups consisted of N=10 animals/group. Naïve animals and vehicle control groups were run with each study. Mean cytokine data was plotted and students T-test was performed to calculate significance (t-test, p<0.05 vs. vehicle) of IRAK4 treated group vs. vehicle treated group. Percent inhibition of cytokine induction was calculated for IRAK4 treated group vs. vehicle treated group.
# Table 4 contains data from multiple studies with columns for Compound, Dose in mg/kg (mpk) and % inhibition of serum TNF. In cases where doses of certain compounds were repeated in multiple experiments, the average percent inhibition of TNF and standard deviation is shown in the table.
# [2] = biological target: human IRAK4 FL (Full Length) (Homo sapiens (Human), UniProt Q9NWZ3); assay: IRAK4 Enzymatic DELFIA Assay, Protocol A; assay type: biochemical; conditions: 0.6 mM ATP (KM)
# Sequence of human IRAK4 FL (Full Length) (Q9NWZ3 whole entry): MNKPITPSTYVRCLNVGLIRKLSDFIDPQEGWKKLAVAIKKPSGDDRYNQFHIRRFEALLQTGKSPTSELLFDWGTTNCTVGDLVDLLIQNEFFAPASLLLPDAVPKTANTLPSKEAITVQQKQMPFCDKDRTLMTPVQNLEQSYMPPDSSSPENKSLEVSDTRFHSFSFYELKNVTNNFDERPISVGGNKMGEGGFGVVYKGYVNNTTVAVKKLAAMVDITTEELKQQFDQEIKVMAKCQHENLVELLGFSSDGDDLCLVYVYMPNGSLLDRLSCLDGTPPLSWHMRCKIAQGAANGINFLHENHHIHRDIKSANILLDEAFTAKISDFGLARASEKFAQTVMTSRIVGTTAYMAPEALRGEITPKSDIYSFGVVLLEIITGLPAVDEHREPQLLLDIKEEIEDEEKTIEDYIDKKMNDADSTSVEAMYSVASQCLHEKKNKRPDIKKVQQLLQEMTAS
structure (smiles),measurement,setting,value
"Cc1ccc(-n2nc(C(C)(C)C)cc2NC(=O)Nc2ccc(OCCN3CCOCC3)c3ccccc23)cc1 [BIRB796, reference compound]","days on which hind paw swelling in CIA rats was significantly reduced (t-test, p<0.05 vs. vehicle)","[1]; 30 mg/kg PO, QD, positive control (p38 inhibitor)",Day 1-Day 8
"CC(C)Oc1cc2c(OC[C@@H]3CCC(=O)N3)nccc2cc1C(N)=O [Example 26, 1-{[(2S)-5-oxopyrrolidin-2-yl]methoxy}-7-(propan-2-yloxy)isoquinoline-6-carboxamide]",hind paw swelling (delta paw volume),"[1]; 10 mg/kg PO, BID",transiently significant reduction in hind paw swelling only on Day 5 and Day 6
same,"days on which hind paw swelling in CIA rats was significantly reduced (t-test, p<0.05 vs. vehicle)","[1]; 30 mg/kg PO, BID, therapeutic treatment for 8 days",Day 2-Day 8
same,"days on which hind paw swelling in CIA rats was significantly reduced (t-test, p<0.05 vs. vehicle)","[1]; 100 mg/kg PO, BID, therapeutic treatment for 8 days",Day 1-Day 8 (end)
same,hind paw swelling (delta paw volume),"[1]; therapeutic treatment BID daily for 8 days, t-test p<0.05 vs. vehicle",reduced the hind paw swelling in CIA rats significantly
"COc1cc2c(OC[C@@H]3CCC(=O)N3)cccc2cc1C(N)=O [Example 173, 3-methoxy-5-{[(2S)-5-oxopyrrolidin-2-yl]methoxy}naphthalene-2-carboxamide]",% inhib TNF,serum TNF; dose 30 mpk,55%
same,% inhib TNF,serum TNF; dose 100 mpk,98%
"COc1cc2c(OC[C@H]3NC(=O)[C@@H](F)[C@H]3C)nccc2cc1C(N)=O [Example 189, 1-{[(2S,3S,4S)-4-fluoro-3-methyl-5-oxopyrrolidin-2-yl]methoxy}-7-methoxyisoquinoline-6-carboxamide]",% inhib TNF,serum TNF; dose 30 mpk,40%
"CC(C)Oc1cc2c(OC[C@@H]3C[C@@H](C4(O)COC4)C(=O)N3)nccc2cc1C(N)=O [Example 193, 1-{[(2S,4S)-4-(3-hydroxyoxetan-3-yl)-5-oxopyrrolidin-2-yl]methoxy}-7-(propan-2-yloxy)isoquinoline-6-carboxamide]",IC50,[2],238 nM
"COc1cc2c(OC[C@@H]3C[C@](C)(F)C(=O)N3)cccc2cc1C(N)=O [Example 194, 5-{[(2S,4S)-4-fluoro-4-methyl-5-oxopyrrolidin-2-yl]methoxy}-3-methoxynaphthalene-2-carboxamide]",% inhib TNF,serum TNF; dose 30 mpk,76%
